From paper PMC9230623, “Design, Synthesis, In Vitro Biological Activity Evaluation and Stabilized Nanostructured Lipid Carrier Formulation of Newly Synthesized Schiff Bases-Based TMP Moieties” (Pharmaceuticals, 2022) come the findings set out here.

In data set [1] the test system is MDA-MB-231 breast cancer cell line. Nature of the data set: Cytotoxic assay against MDA-MB-231 breast cancer cell line. The data set is classed as cell-based. The settings on record: Homo sapiens, MDA-MB-231; mean of three independent replicates ± SE; read-out: IC50 Value (μM) MDA-MB-231. How it is done: The newly prepared Schiff bases 2–5g were screened for their in vitro cytotoxic activity against the MDA-MB-231 breast cancer cell line taking CA-4 as a reference drug. […] In addition, further structure extension to give N-aryl hydrazinyl molecules 4a–5g produced compounds with considerable cytotoxic activity, which may give an indication that the aryl ring is important for cytotoxic activity. […]
Cytotoxic activity of the prepared schiff bases against MDA-MB-231 breast cell Line was determined according previously reported methods. (See Supplementary Materials—Appendix SB).

Compound `C/C=N/NC(=O)/C(=C/c1cc(OC)c(OC)c(OC)c1)NC(=O)c1cc(OC)c(OC)c(OC)c1` [Compound 2, N-((Z)-3-((E)-2-Ethylidenehydrazinyl)-3-oxo-1-(3,4,5-trimethoxyphenyl)prop-1-en-2-yl)-3,4,5-trimethoxybenzamide] registered a melting point of 224 to 226 °C. In addition, the IC50 in data set [1] came to 31.6 ± 1.07 µM.

Regarding `COc1cc(/C=C(\NC(=O)c2cc(OC)c(OC)c(OC)c2)C(=O)N/N=C/c2ccco2)cc(OC)c1OC` [Compound 3, N-((Z)-3-((E)-2-(Furan-2-ylmethylene)hydrazinyl)-3-oxo-1-(3,4,5-trimethoxyphenyl)prop-1-en-2-yl)-3,4,5-trimethoxybenzamide], the melting point was 212 to 214 °C. Moreover, the IC50 in data set [1] was 6.08 ± 0.42 µM.

Turning to `COc1cc(/C=C(\NC(=O)c2cc(OC)c(OC)c(OC)c2)C(=O)N/N=C/c2ccc(F)cc2)cc(OC)c1OC` [Compound 4a, N-((Z)-3-((E)-2-(4-Fluorobenzylidene)hydrazinyl)-3-oxo-1-(3,4,5-trimethoxyphenyl)prop-1-en-2-yl)-3,4,5-trimethoxybenzamide], the melting point is 201 to 203 °C. In data set [1], the IC50 was determined as 23.7 ± 1.13 µM.

For `COc1cc(/C=C(\NC(=O)c2cc(OC)c(OC)c(OC)c2)C(=O)N/N=C/c2ccc(Cl)cc2)cc(OC)c1OC` [Compound 4b, N-((Z)-3-((E)-2-(4-Chlorobenzylidene)hydrazinyl)-3-oxo-1-(3,4,5-trimethoxyphenyl)prop-1-en-2-yl)-3,4,5-trimethoxybenzamide], the melting point was 233 to 235 °C. The IC50 in data set [1] stood at 16.1 ± 0.83 µM.

`COc1cc(/C=C(\NC(=O)c2cc(OC)c(OC)c(OC)c2)C(=O)N/N=C/c2ccccc2[N+](=O)[O-])cc(OC)c1OC` [Compound 4c, 3,4,5-Trimethoxy-N-((Z)-3-((E)-2-(2-nitrobenzylidene)hydrazinyl)-3-oxo-1-(3,4,5-trimethoxyphenyl)prop-1-en-2-yl)benzamide] gave a melting point of 239 to 241 °C. For the same compound, in data set [1], the IC50 came out at 38.8 ± 0.93 µM.

`COc1cc(/C=C(\NC(=O)c2cc(OC)c(OC)c(OC)c2)C(=O)N/N=C/c2ccccc2O)cc(OC)c1OC` [Compound 4d, N-((Z)-3-((E)-2-(2-Hydroxybenzylidene)hydrazinyl)-3-oxo-1-(3,4,5-trimethoxyphenyl)prop-1-en-2-yl)-3,4,5-trimethoxybenzamide] showed a melting point of 220 to 222 °C. Also, in data set [1], the IC50 amounted to 5.98 ± 0.28 µM.

For the compound `COc1cc(/C=C(\NC(=O)c2cc(OC)c(OC)c(OC)c2)C(=O)N/N=C/c2ccc(O)cc2)cc(OC)c1OC` [Compound 4e, N-((Z)-3-((E)-2-(4-Hydroxybenzylidene)hydrazinyl)-3-oxo-1-(3,4,5-trimethoxyphenyl)prop-1-en-2-yl)-3,4,5-trimethoxybenzamide], the IC50 in data set [1] amounted to 7.1 ± 1.02 µM.

Take `COc1cc(/C=C(\NC(=O)c2cc(OC)c(OC)c(OC)c2)C(=O)N/N=C/c2ccc(C)cc2)cc(OC)c1OC` [Compound 4f, 3,4,5-Trimethoxy-N-((Z)-3-((E)-2-(4-methylbenzylidene)hydrazinyl)-3-oxo-1-(3,4,5-trimethoxyphenyl)prop-1-en-2-yl)benzamide]: the melting point lay within 208 to 210 °C. For the same compound, in data set [1], the IC50 was 4.52 ± 0.36 µM.

On to `COc1ccc(/C=N/NC(=O)/C(=C/c2cc(OC)c(OC)c(OC)c2)NC(=O)c2cc(OC)c(OC)c(OC)c2)cc1` [Compound 4g, 3,4,5-Trimethoxy-N-((Z)-3-((E)-2-(4-methoxybenzylidene)hydrazinyl)-3-oxo-1-(3,4,5-trimethoxyphenyl)prop-1-en-2-yl)benzamide], for which the melting point lay within 217 to 219 °C. For the same compound, the IC50 in data set [1] worked out at 3.43 ± 0.22 µM.

Take `COc1cc(/C=C(\NC(=O)c2cc(OC)c(OC)c(OC)c2)C(=O)N/N=C/c2ccc(N(C)C)cc2)cc(OC)c1OC` [Compound 4i, N-((Z)-3-((E)-2-(4-(Dimethylamino)benzylidene)hydrazinyl)-3-oxo-1-(3,4,5-trimethoxyphenyl)prop-1-en-2-yl)-3,4,5-trimethoxybenzamide]: the melting point fell in the range of 243 to 245 °C. The 50% inhibitory concentration (IC50) in data set [1] is 3.46 ± 0.51 µM.

`COc1cc(/C=N/NC(=O)/C(=C/c2cc(OC)c(OC)c(OC)c2)NC(=O)c2cc(OC)c(OC)c(OC)c2)ccc1O` [Compound 4j, N-((Z)-3-((E)-2-(4-Hydroxy-3-methoxybenzylidene)hydrazinyl)-3-oxo-1-(3,4,5-trimethoxyphenyl)prop-1-en-2-yl)-3,4,5-trimethoxybenzamide] gave a melting point of 226 to 228 °C. In data set [1], the IC50 turned out to be 2.84 ± 0.18 µM.

On to `COc1cc(/C=N/NC(=O)/C(=C/c2cc(OC)c(OC)c(OC)c2)NC(=O)c2cc(OC)c(OC)c(OC)c2)cc(OC)c1` [Compound 4k, N-((Z)-3-((E)-2-(3,5-Dimethoxybenzylidene)hydrazinyl)-3-oxo-1-(3,4,5-trimethoxyphenyl)prop-1-en-2-yl)-3,4,5-trimethoxybenzamide], for which the melting point fell in the range of 214 to 216 °C. Besides, the IC50 in data set [1] turned out to be 4.8 ± 0.17 µM.

For the compound `COc1cc(/C=C(\NC(=O)c2cc(OC)c(OC)c(OC)c2)C(=O)N/N=C/c2cc(OC)c(OC)c(OC)c2)cc(OC)c1OC` [Compound 4l, 3,4,5-Trimethoxy-N-((Z)-3-oxo-3-((E)-2-(3,4,5-trimethoxybenzylidene)hydrazinyl)-1-(3,4,5-trimethoxyphenyl)prop-1-en-2-yl)benzamide], in data set [1], the IC50 was found to be 7.3 ± 0.64 µM.

In the case of `COc1cc(/C=C(\NC(=O)c2cc(OC)c(OC)c(OC)c2)C(=O)N/N=C(\C)c2ccccc2)cc(OC)c1OC` [Compound 5a, 3,4,5-Trimethoxy-N-((Z)-3-oxo-3-((E)-2-(1-phenylethylidene)hydrazinyl)-1-(3,4,5-trimethoxyphenyl)prop-1-en-2-yl)benzamide], the melting point is 260 to 262 °C. In data set [1], the IC50 was determined as 20.2 ± 0.89 µM.

In turn, `COc1cc(/C=C(\NC(=O)c2cc(OC)c(OC)c(OC)c2)C(=O)N/N=C(\C)c2ccc(Cl)cc2)cc(OC)c1OC` [Compound 5b, N-((Z)-3-((E)-2-(1-(4-Chlorophenyl)ethylidene)hydrazinyl)-3-oxo-1-(3,4,5-trimethoxyphenyl)prop-1-en-2-yl)-3,4,5-trimethoxybenzamide] returned a melting point of 249 to 251 °C. In addition, the IC50 in data set [1] was determined as 14 ± 1.19 µM.

Take `COc1cc(/C=C(\NC(=O)c2cc(OC)c(OC)c(OC)c2)C(=O)N/N=C(\C)c2ccc(Br)cc2)cc(OC)c1OC` [Compound 5c, N-((Z)-3-((E)-2-(1-(4-Bromophenyl)ethylidene)hydrazinyl)-3-oxo-1-(3,4,5-trimethoxyphenyl)prop-1-en-2-yl)-3,4,5-trimethoxybenzamide]: the melting point lay in the range of 244 to 246 °C. Besides, the IC50 in data set [1] turned out to be 20.7 ± 1.84 µM.

Regarding `COc1cc(/C=C(\NC(=O)c2cc(OC)c(OC)c(OC)c2)C(=O)N/N=C(\C)c2ccc(O)cc2)cc(OC)c1OC` [Compound 5d, N-((Z)-3-((E)-2-(1-(4-Hydroxyphenyl)ethylidene)hydrazinyl)-3-oxo-1-(3,4,5-trimethoxyphenyl)prop-1-en-2-yl)-3,4,5-trimethoxybenzamide], the melting point lay in the range of 258 to 260 °C. For the same compound, the IC50 in data set [1] was determined as 1.98 ± 0.19 µM.

The compound `COc1ccc(/C(C)=N/NC(=O)/C(=C/c2cc(OC)c(OC)c(OC)c2)NC(=O)c2cc(OC)c(OC)c(OC)c2)cc1` [Compound 5e, 3,4,5-Trimethoxy-N-((Z)-3-((E)-2-(1-(4-methoxyphenyl)ethylidene)hydrazinyl)-3-oxo-1-(3,4,5-trimethoxyphenyl)prop-1-en-2-yl)benzamide] showed a melting point of 241 to 243 °C. Further, the IC50 in data set [1] came out at 9.52 ± 1.18 µM.
